Experimental data published in ChEMBL document CHEMBL4825684, “Design, synthesis and biological evaluation of N-anthraniloyl tryptamine derivatives as pleiotropic molecules for the therapy of malignant glioma” (Eur J Med Chem, 2021).
The source made the active and inactive calls. The rule behind the calls is not given here.

What was measured:
[1] = target: Signal transducer and activator of transcription 3 (Homo sapiens) (UniProt P40763); test: Inhibition STAT3 phosphorylation in human U-87 MG cells incubated up to 8 hrs by Western blot analysis; type: cell-based; conditions: time hrs <=8
U-87 MG [2] = test: Cytotoxicity against human U-87 MG cells assessed as cell viability at 4 uM measured up to 24 hrs; type: functional, U-87MG ATCC; conditions: time hrs <=24, read-out: Activity
U-251 [3] = test: Cell cycle arrest in human U-251 cells assessed as accumulation at G2/M phase at 8 uM incubated for 48 hrs by PI staining based flow cytometry assay (reference value: 11.9%); type: functional
U-251 [4] = test: Induction of apoptosis in human U-251 cells assessed as necrotic cells at 2 uM incubated for 48 hrs by […] double staining based flow cytometry assay (reference value: 1.32%); type: functional
U-251 [5] = test: Induction of apoptosis in human U-251 cells assessed as viable cells at 4 uM incubated for 48 hrs by […] double staining based flow cytometry assay (reference value: 96.6%); type: functional; conditions: read-out: Activity
U-251 [6] = test: Induction of apoptosis in human U-251 cells assessed as necrotic cells at 4 uM incubated for 48 hrs by […] double staining based flow cytometry assay (reference value: 1.32%); type: functional
U-87 MG [7] = test: Induction of apoptosis in human U-87 MG cells assessed as early apoptotic cells at 2 uM incubated for 48 hrs by […] double staining based flow cytometry assay (reference value: 0.63%); type: functional, U-87MG ATCC
U-87 MG [8] = test: Induction of apoptosis in human U-87 MG cells assessed as late apoptotic cells at 4 uM incubated for 48 hrs by […] double staining based flow cytometry assay (reference value: 0.61%); type: functional, U-87MG ATCC
U-87 MG [9] = test: Induction of apoptosis in human U-87 MG cells assessed as increase in cytochrome c release at 1 to 4 uM incubated for 48 hrs by Western blot analysis relative to control; type: functional, cell-based; conditions: U-87MG ATCC, dose 1-4 µM
U-251 [10] = test: Anti-invasion activity against human U-251 cells assessed as inhibition of invasion incubated for 24 hrs by matrigel trans well plate assay; type: functional, cell-based; conditions: dose 1-4 µM
[11] = Toxicity in rat C6 cells inoculated orthotopic Sprague-Dawley rat model at 50 mg/kg, ip twice a day administered for 25 days; type: organism-based; conditions: in vivo, 600 h, time 25 day
C6 [12] = test: Antitumor activity against rat C6 cells inoculated orthotopic Sprague-Dawley rat model assessed as reduction tumor weight at 50 mg/kg, ip twice a day treated 3 days after tumor cell injection measured for 13 days after tumor implantation; type: functional, organism-based; conditions: time 3.0 day
C6 [13] = test: Antitumor activity against rat C6 cells inoculated orthotopic Sprague-Dawley rat model assessed as tumor growth inhibition at 50 mg/kg, ip twice a day treated 3 days after tumor cell injection measured for 13 days after tumor implantation; type: functional; conditions: 72 h, time 3 day, read-out: TGI
C6 [14] = test: Antitumor activity against rat C6 cells inoculated orthotopic Sprague-Dawley rat model assessed as decrease in PGE2 in tumor tissue at 50 mg/kg, ip twice a day treated 3 days after tumor cell injection measured for 13 days after tumor implantation […]; type: functional, organism-based; conditions: time 3.0 day
C6 [15] = test: Antitumor activity against rat C6 cells inoculated orthotopic Sprague-Dawley rat model assessed as decrease in VEGF-A in tumor tissue at 50 mg/kg, ip twice a day treated 3 days after tumor cell injection measured for 13 days after tumor implantation by Western blot analysis; type: functional, organism-based; conditions: time 3.0 day
[16] = Toxicity in rat C6 cells inoculated orthotopic Sprague-Dawley rat model assessed as body weight change at 50 mg/kg, ip twice a day administered for 13 days of tumor implantation; type: organism-based; conditions: in vivo, 312 h, time 13 day

Signal transducer and activator of transcription 3 (Homo sapiens), sequence (P40763 whole entry): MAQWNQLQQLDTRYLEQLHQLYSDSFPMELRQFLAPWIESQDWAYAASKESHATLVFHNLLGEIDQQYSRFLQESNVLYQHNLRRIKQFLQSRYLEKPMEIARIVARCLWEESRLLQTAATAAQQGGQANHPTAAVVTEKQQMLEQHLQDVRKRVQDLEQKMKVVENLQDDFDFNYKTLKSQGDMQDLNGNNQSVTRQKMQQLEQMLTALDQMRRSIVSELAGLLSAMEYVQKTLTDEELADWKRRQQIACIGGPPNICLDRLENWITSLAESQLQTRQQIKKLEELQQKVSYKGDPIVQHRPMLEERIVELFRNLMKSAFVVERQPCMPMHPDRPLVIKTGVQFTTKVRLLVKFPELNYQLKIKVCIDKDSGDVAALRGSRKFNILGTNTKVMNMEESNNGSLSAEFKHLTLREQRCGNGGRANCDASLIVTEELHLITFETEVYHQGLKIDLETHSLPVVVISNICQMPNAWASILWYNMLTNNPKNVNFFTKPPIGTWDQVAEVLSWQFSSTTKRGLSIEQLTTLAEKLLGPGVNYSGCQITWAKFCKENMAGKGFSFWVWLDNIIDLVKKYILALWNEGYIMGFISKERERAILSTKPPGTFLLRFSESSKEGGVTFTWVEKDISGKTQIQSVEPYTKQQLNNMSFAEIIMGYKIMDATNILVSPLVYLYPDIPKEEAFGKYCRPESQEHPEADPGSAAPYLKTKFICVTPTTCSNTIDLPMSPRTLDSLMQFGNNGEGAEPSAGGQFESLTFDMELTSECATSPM

Question: What does the source list for COc1cc(Nc2ccccc2C(=O)NCCc2c[nH]c3ccccc23)cc(OC)c1OC?
Answer: inhibition [1]: Active; viability at 4 µM (U-87 MG [2]): 80%; Activity (U-251 [3]): 63.7%; Activity (U-251 [4]): 4.28%; viability at 4 µM (U-251 [5]): 65.5%; Activity (U-251 [6]): 4.78%; Activity (U-87 MG [7]): 2.17%; Activity (U-87 MG [8]): 3.78%; Activity (U-87 MG [9]): Active; Activity (U-251 [10]): Active; Activity [11]: Non-Toxic; Activity (C6 [12]): Active; inhibition in vivo at 50 mg/kg (C6 [13]): 66%; Activity (C6 [14]): Active; Activity (C6 [15]): Active; Activity [16]: Non-Toxic
